Measured values as given in patent publication US12338256B2, “Aza-tetracyclic oxazepine compounds and uses thereof” (Genentech, Inc., priority 2022, dated 2025).
Where two headings read alike, the source gives them in different places.

How the values were obtained:
[1] = system: HPAC (homozygous mutant KRAS G12D human pancreatic cell line); assay: KRAS 3D-Cell Proliferation Assay, HPAC (Example 503); type: cell-based; conditions: Homo sapiens, HPAC, 168 h, HPAC 3D culture, 7 days, CellTiter-Glo 3D; read-out: Prolif HPAC 3D ATP IC50
In short: (§1)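 IC50s come from a 4-parameter Hill fit of luminescence (CellTiter-Glo 3D) normalized between DMSO (0%) and 1 μM staurosporine (100%). Cells in low-attachment 3D culture, RPMI-1640 with 10% FBS, received serial compound dilutions (0.3% DMSO) after overnight and were incubated 7 days at 37 °C.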

KRAS WT [2] = molecular target: T1, KRAS WT (Homo sapiens, UniProt P01116); assay: KRAS WI Biochemical Assay, BODIPY-GDP Exchange TR-FRET (Example 501; 3 nM KRAS WT, 3 nM SOS1, 60-minute incubation)
T1 sequence (P01116 1-188 isoform P01116-2): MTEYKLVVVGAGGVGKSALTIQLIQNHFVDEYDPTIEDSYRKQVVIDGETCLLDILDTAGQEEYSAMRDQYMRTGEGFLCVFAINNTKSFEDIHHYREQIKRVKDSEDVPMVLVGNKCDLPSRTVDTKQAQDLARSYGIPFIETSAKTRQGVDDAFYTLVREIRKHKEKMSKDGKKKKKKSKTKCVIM
Description: Example 501: KRAS WI Biochemical Assay, BODIPY-GDP Exchange TR-FRET. Biochemical compound potencies are assessed by evaluating inhibition of SOS1-mediated nucleotide exchange in KRAS WT. In this assay, the SOS1-promoted exchange of fluorescently-labeled GDP (BOPIDY-GDP) is monitored by time-resolved fluorescence resonance energy transfer (TR-FRET). Compounds solubilized in DMSO are dispensed as concentration series into 384-well white assay plates, and 5 uL assay buffer (20 mM HEPES, pH 7.5, 50 mM NaCl, 10 mM MgCl2, 0.01% Tween-20 and 1 mM dithiothreitol) is added just prior to the start of the assay. A preformed complex of 3 nM biotin-tagged recombinant human KRAS WT and 0.3 nM terbium-labeled streptavidin (CisBIO) prepared in 5 uL/well assay buffer is added and allowed to incubate for 10-minutes at room temperature. The reaction is initiated with the addition of 5 uL 3 nM recombinant human SOS1 and 300 nM BODIPY-GDP in assay buffer. After a 60-minute incubation, the fluorescence is measured with excitation at 337 nm and emission at 490 and 520 nm. The TR-FRET ratio is determined as the fluorescence at 520 nm divided by the fluorescence at 490 nm multiplied by 10,000. The results are normalized to percent inhibition based on control samples: DMSO (0% inhibition) and control compound at a concentration that inhibits completely (100% inhibition). The normalized TR-FRET results are plotted against compound concentration, and the data are fit to a 4-parameter Hill equation to determine the IC50 values.

[3] = system: H1975 (KRAS wild type human lung adenocarcinoma cell line); assay: KRAS 3D-Cell Proliferation Assay, H1975 (Example 503); type: cell-based; conditions: Homo sapiens, NCI-H1975, 168 h, H1975 3D culture, 7 days, CellTiter-Glo 3D; read-out: Prolif H1975 3D ATP IC50
In short: as §1

KRAS G12D = KRAS G12D (Homo sapiens, UniProt P01116, G12D); assay: KRAS G12D LoEnz Biochemical Assay, BODIPY-GDP Exchange TR-FRET (Example 500); conditions: read-out: KRas (G12D) GDP HTRF IC50
Chain of KRAS G12D (P01116 1-188 isoform P01116-2 G12D): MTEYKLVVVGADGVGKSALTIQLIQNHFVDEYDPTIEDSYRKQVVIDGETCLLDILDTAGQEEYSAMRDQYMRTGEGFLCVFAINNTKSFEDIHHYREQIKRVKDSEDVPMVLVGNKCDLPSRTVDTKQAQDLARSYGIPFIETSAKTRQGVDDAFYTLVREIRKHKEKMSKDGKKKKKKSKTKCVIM
Description: Example 500: KRAS G12D LoEnz Biochemical Assay, BODIPY-GDP Exchange TR-FRET. Biochemical compound potencies are assessed by evaluating inhibition of SOS1-mediated nucleotide exchange in KRAS G12D. In this assay, the SOS1-promoted exchange of fluorescently-labeled GDP (BOPIDY-GDP) is monitored by time-resolved fluorescence resonance energy transfer (TR-FRET). Compounds solubilized in DMSO are dispensed as concentration series into 384-well white assay plates. A preformed complex of biotin-tagged recombinant human KRAS (0.06 nM mutant G12D) and 0.06 nM terbium-labeled streptavidin (CisBIO) prepared in 10 uL/well assay buffer (20 mM HEPES, pH 7.5, 50 mM NaCl, 10 mM MgCl2, 0.01% Tween-20 and 1 mM dithiothreitol) is added and allowed to incubate for 10-minutes at room temperature. The reaction is initiated with the addition of 5 uL 300 nM recombinant human SOS1 and 300 nM BODIPY-GDP in assay buffer. After a 120-minute incubation, the fluorescence is measured with excitation at 337 nm and emission at 490 and 520 nm. The TR-FRET ratio is determined as the fluorescence at 520 nm divided by the fluorescence at 490 nm multiplied by 10,000. The results are normalized to percent inhibition based on control samples: DMSO (0% inhibition) and control compound at a concentration that inhibits completely (100% inhibition). The normalized TR-FRET results are plotted against compound concentration, and the data are fit to a 4-parameter Hill equation to determine the IC50 values.

[4] = system: AsPC-1 (homozygous mutant KRAS G12D human pancreatic cell line); assay: KRAS 3D-Cell Proliferation Assay, AsPC-1 (Example 503); type: cell-based; conditions: Homo sapiens, ASPC1, 168 h, AsPC-1 3D culture, 7 days, CellTiter-Glo 3D; read-out: Prolif AsPC-1 3D ATP IC50
In short: as §1

[5] = system: PC-9 (KRAS wild type human lung adenocarcinoma cell line); assay: KRAS 3D-Cell Proliferation Assay, PC-9 (Example 503); type: cell-based; conditions: 168 h, PC-9 3D culture, 7 days, CellTiter-Glo 3D, read-out: Prolif PC9 3D ATP IC50
In short: as §1

KRAS WT [6] = molecular target: T1, KRAS WT; assay: KRAS WT Biochemical Assay, BODIPY-GDP Exchange TR-FRET (Example 502; 0.06 nM KRAS WT, 15 nM GDP, 300 nM SOS1, 120-minute incubation); conditions: SOS1-mediated BODIPY-GDP exchange, read-out: KRas HTRF IC50
Description: Example 502: KRAS WT Biochemical Assay, BODIPY-GDP Exchange TR-FRET. Biochemical compound potencies are assessed by evaluating inhibition of SOS1-mediated nucleotide exchange in KRAS WT. In this assay, the SOS1-promoted exchange of fluorescently-labeled GDP (BOPIDY-GDP) is monitored by time-resolved fluorescence resonance energy transfer (TR-FRET). Compounds solubilized in DMSO are dispensed as concentration series into 384-well white assay plates. A preformed complex of 0.06 nM biotin-tagged recombinant human KRAS WT, 15 nM GDP and 0.06 nM terbium-labeled streptavidin (CisBIO) prepared in 10 uL/well assay buffer (20 mM HEPES, pH 7.5, 50 mM NaCl, 10 mM MgCl2, 0.01% Tween-20 and 1 mM dithiothreitol) is added and allowed to incubate for 10-minutes at room temperature. The reaction is initiated with the addition of 5 uL 300 nM recombinant human SOS1 and 300 nM BODIPY-GDP in assay buffer. After a 120-minute incubation, the fluorescence is measured with excitation at 337 nm and emission at 490 and 520 nm. The TR-FRET ratio is determined as the fluorescence at 520 nm divided by the fluorescence at 490 nm multiplied by 10,000. The results are normalized to percent inhibition based on control samples: DMSO (0% inhibition) and control compound at a concentration that inhibits completely (100% inhibition). […]

[7] = SOS1-mediated BODIPY-GDP exchange TR-FRET, read-out: KRas HTRF IC50
[8] = SOS1-mediated BODIPY-GDP exchange TR-FRET
[9] = SOS1-mediated BODIPY-GDP exchange, read-out: KRas(wt) GDP HTRF IC50

Row | SMILES | IC50 [1] | IC50 (KRAS WT [2]; [7]) | IC50 [3] | IC50 (KRAS G12D; [8]) | IC50 [4] | IC50 (KRAS WT [2]; [9]) | IC50 [5] | IC50 (KRAS WT [6]) | IC50 (KRAS G12D; BODIPY-GDP exchange)
1 | Cc1nc(N)c(F)c(-c2nc3c4c(nc(OC[C@@]56CCCN5CC5(CC5(F)F)C6)nc4c2F)N2C[C@H]4CC[C@H](N4)[C@H]2[C@H](C)O3)c1C(F)(F)F (stereo partly drawn) [Compound 221, 4-((5S,5aS,6S,9R)-12-(((7a′S)-2,2-Difluorodihydro-1′H,3′H-spiro[cyclopropane-1,2′-pyrrolizin]-7a′(5′H)-yl)methoxy)-1-fluoro-5-methyl-5a,6,7,8,9,10-hexahydro-5H-4-oxa-3,10a,11,13,14-pentaaza[6,9]methanonaphtho[1,8-ab]heptalene-2-yl)-3-fluoro-6-methyl-5-(trifluoromethyl)pyridin-2-amine] | 1.45 nM | 9.95 nM | 498 nM | 0.39 nM | 1.2 nM |  |  |  | 
2 | Nc1nc2c(-c3nc4c5c(ncnc5c3F)N3C[C@H]5CC[C@H](N5)[C@H]3CO4)ccc(F)c2s1 [Compound 55, 7-fluoro-4-((5aS,6S,9R)-1-fluoro-5a,6,7,8,9,10-hexahydro-5H-4-oxa-3,10a,11,13,14-pentaaza-6,9-methanonaphtho[1,8-ab]heptalen-2-yl)benzo[d]thiazol-2-amine] |  |  |  |  | ≥ 20000 nM | ≥ 200000 nM | 12.8 µM |  | 
3 | Cc1cc(N)c(Cl)c(-c2nc3c4c(nc(OC[C@@]56CCCN5C[C@H](F)C6)nc4c2F)N2C[C@H]4CC[C@H](N4)[C@H]2[C@H](C)O3)c1C(F)(F)F (single isomer, unassigned) [Compound 199] | 0.98 nM | 9.63 nM | 1050 nM | 0.17 nM | 4.06 nM |  |  |  | 
4 | Cc1c(F)c(N)cc(-c2nc3c4c(nc(OC[C@H]5CC[C@@H]6C(=O)N(C)CCN56)nc4c2F)N2C[C@H]4CC[C@H](N4)[C@H]2[C@H](C)O3)c1C(F)(F)F (relative stereo) [Compound 123, 6-((((5S,5aS,6S,9R)-2-(5-Amino-4-fluoro-3-methyl-2-(trifluoromethyl)phenyl)-1-fluoro-5-methyl-5a,6,7,8,9,10-hexahydro-5H-4-oxa-3,10a,11,13,14-pentaaza-6,9-methanonaphtho[1,8-ab]heptalen-12-yl)oxy)methyl)-2-methylhexahydropyrrolo[1,2-a]pyrazin-1(2H)-one] | 63 nM |  | 13900 nM |  |  |  |  | 181 nM | 0.7 nM
5 | Cc1c(Cl)c(N)cc(-c2nc3c4c(nc(OC[C@@]56CCCN5C[C@H](F)C6)nc4c2F)N2C[C@H]4CC[C@H](N4)[C@H]2[C@H](C)O3)c1C(F)(F)F (single isomer, unassigned) [Compound 200] | 6.83 nM | 6.7 nM | 593 nM | 0.1 nM |  |  |  |  | 
6 | C[C@@H]1Oc2nc(-c3cc(N)cc(F)c3C(F)(F)F)c(F)c3nc(OC[C@H]4CC[C@@H]5COC(C)(C)CN45)nc(c23)N2C[C@H]3CC[C@H](N3)[C@@H]12 (relative stereo) [Compound 125, 3-((5S,5aS,6S,9R)-12-((3,3-dimethylhexahydro-1H-pyrrolo[2,1-c][1,4]oxazin-6-yl)methoxy)-1-fluoro-5-methyl-5a,6,7,8,9,10-hexahydro-5H-4-oxa-3,10a,11,13,14-pentaaza-6,9-methanonaphtho[1,8-ab]heptalen-2-yl)-5-fluoro-4-(trifluoromethyl)aniline] | 2.14 nM |  | 1220 nM |  | 10.2 nM |  |  | 14.7 nM | 0.23 nM
7 | Fc1c(-c2cccc3cccc(Cl)c23)nc2c3c(ncnc13)N1C[C@H]3CC[C@H](N3)[C@H]1CO2 [Compound 53, (5aS,6S,9R)-2-(8-Chloronaphthalen-1-yl)-1-fluoro-5a,6,7,8,9,10-hexahydro-5H-4-oxa-3,10a,11,13,14-pentaaza-6,9-methanonaphtho[1,8-ab]heptalene] |  |  |  |  |  | ≥ 200000 nM |  |  | 
8 | C[C@@H]1Oc2nc(-c3cc(O)cc4cccc(F)c34)c(F)c3nc(OC[C@@]45CCCN4C[C@H](F)C5)nc(c23)N2C[C@H]3CC[C@H](N3)[C@@H]12 [Compound 9, 5-fluoro-4-((5S,5aS,6S,9R)-1-fluoro-12-(((2R,7aS)-2-fluorotetrahydro-1H-pyrrolizin-7a(5H)-yl)methoxy)-5-methyl-5a,6,7,8,9,10-hexahydro-5H-4-oxa-3,10a,11,13,14-pentaaza-6,9-methanonaphtho[1,8-ab]heptalen-2-yl)naphthalen-2-ol] | 11.6 nM |  | 2020 nM |  | 19.3 nM | 6.51 nM | 7.79 µM |  | 0.057 nM
